Measurements published in patent publication US12319684B2 (Sanford Burnham Prebys Medical Discovery Institute, priority 2014, dated 2025).
Like-named read-outs stand apart in the source and are kept apart here.

Biological target: T1, human apelin receptor (APJ, AGTRL-1, APLNR) (Homo sapiens, UniProt P35414)
T1 construct: host or cells: Chinese hamster ovary cells
T1 sequence (P35414 1-380): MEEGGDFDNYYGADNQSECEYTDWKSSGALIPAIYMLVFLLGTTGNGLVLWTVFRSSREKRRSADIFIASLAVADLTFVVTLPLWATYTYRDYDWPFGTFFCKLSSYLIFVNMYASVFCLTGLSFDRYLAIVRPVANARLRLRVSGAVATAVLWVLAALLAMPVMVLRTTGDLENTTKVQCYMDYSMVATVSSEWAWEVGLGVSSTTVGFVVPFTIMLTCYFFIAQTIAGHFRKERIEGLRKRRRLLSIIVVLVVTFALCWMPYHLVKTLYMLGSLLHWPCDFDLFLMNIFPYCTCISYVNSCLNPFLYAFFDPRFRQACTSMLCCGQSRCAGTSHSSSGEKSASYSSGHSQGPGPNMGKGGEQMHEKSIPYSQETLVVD
Assay: APJ cAMP cell-based assay (forskolin-stimulated CHO cells, enzyme fragment complementation)
Settings: for Emax: CHO, 0.5 h, read-out: APJ cAMP % resp (efficacy)
Experimental: The assays disclosed herein were performed using cell lines from DiscoveRx, Inc.
Biological activity was determined in a cell-based assay. This assay detects activation of the receptor by reporting on intracellular cyclic adenosine monophosphate (cAMP) level. Chinese hamster ovary cells engineered to express a stably integrated human apelin receptor (APJ, AGTRL-1, APLNR), were plated into the wells of a microtiter plate. Cells were stimulated with forskolin to increase intracellular cAMP. Immediately following, compounds were added at a range of final concentrations 0.0-100 μM, in DMSO (not to exceed a final DMSO concentration of >1% v/v), and allowed to incubate with the cells for 0.5 h. At the end of the incubation, cells were lysed to stop APJ signaling, and cAMP was quantified using a commercially available assay kit that applies enzyme fragment complementation technology and bioluminescence, in a competitive ELISA format.
Compound efficacy (% resp) is reported as a percentage of the maximal apelin-13 response at 1 nM (control).

[1] = CHO cells expressing human APJ, forskolin-stimulated, 0.5 h incubation, 50% of control (apelin-13, 1 nM) response, read-out: APJ cAMP EC50
[2] = percentage of the maximal apelin-13 response at 1 nM (control)

Structure (SMILES) | EC50 [1] | Emax [2] | Emax | EC50
Cc1ccc2nc(CSc3nnc(-c4cccs4)n3-c3ccccc3F)cc(=O)n2c1 [Example 24, 2-[4-(2-Fluoro-phenyl)-5-thiophen-2-yl-4H-[1,2,4]triazol-3-ylsulfanylmethyl]-7-methyl-pyrido[1,2-a]pyrimidin-4-one] | > 10000 nM |  |  | 
Cc1ccc2nc(CSc3nnc(-c4cccs4)n3-c3ccc(OC(F)(F)F)cc3)cc(=O)n2c1 [Example 25, 7-Methyl-2-[5-thiophen-2-yl-4-(4-trifluoromethoxy-phenyl)-4H-[1,2,4]triazol-3-ylsulfanylmethyl]-pyrido[1,2-a]pyrimidin-4-one] | > 10000 nM | 52% |  | 
Cc1ccc2nc(CSc3nnc(-c4cccs4)n3-c3ccc(Cl)cc3)cc(=O)n2c1 [Example 26, 2-[4-(4-Chloro-phenyl)-5-thiophen-2-yl-4H-[1,2,4]triazol-3-ylsulfanylmethyl]-7-methyl-pyrido[1,2-a]pyrimidin-4-one] | > 10000 nM | 86% |  | 
Cc1ccc2nc(CSc3nnc(-c4cccs4)n3-c3ccccc3OC(F)(F)F)cc(=O)n2c1 [Example 27, 7-Methyl-2-[5-thiophen-2-yl-4-(2-trifluoromethoxy-phenyl)-4H-[1,2,4]triazol-3-ylsulfanylmethyl]-pyrido[1,2-a]pyrimidin-4-one] | 17.4 nM | 82% |  | 
Cc1ccc2nc(CSc3nnc(-c4cccs4)n3-c3cccc(Cl)c3)cc(=O)n2c1 [Example 28, 2-[4-(3-Chloro-phenyl)-5-thiophen-2-yl-4H-[1,2,4]triazol-3-ylsulfanylmethyl]-7-methyl-pyrido[1,2-a]pyrimidin-4-one] | > 10000 nM | 91% |  | 
Cc1ccc2nc(CSc3nnc(-c4cccs4)n3-c3ccccc3Cl)cc(=O)n2c1 [Example 29, 2-[4-(2-Chloro-phenyl)-5-thiophen-2-yl-4H-[1,2,4]triazol-3-ylsulfanylmethyl]-7-methyl-pyrido[1,2-a]pyrimidin-4-one] | 252 nM | 62% |  | 
COc1ccc(-n2c(SCc3cc(=O)n4cc(C)ccc4n3)nnc2-c2cccs2)cn1 [Example 30] | > 10000 nM | 31% |  | 
COc1ccccc1-n1c(SCc2csc(-c3ccccc3)n2)nnc1-c1cccs1 [Example 31, 4-(2-Methoxy-phenyl)-3-(2-phenyl-thiazol-4-ylmethylsulfanyl)-5-thiophen-2-yl-4H-[1,2,4]triazole] | 635 nM |  | 133% | 
COc1ccccc1-n1c(SCc2csc(-c3ccc(C(F)(F)F)cc3)n2)nnc1-c1cccs1 [Example 32, 4-(2-Methoxy-phenyl)-3-thiophen-2-yl-5-[2-(4-trifluoromethyl-phenyl)-thiazol-4-ylmethylsulfanyl]-4H-[1,2,4]triazole] | 1460 nM | 33% |  | 
COc1ccccc1-n1c(SCc2csc(-c3ccc(F)cc3)n2)nnc1-c1cccs1 [Example 33, 3-[2-(4-Fluoro-phenyl)-thiazol-4-ylmethylsulfanyl]-4-(2-methoxy-phenyl)-5-thiophen-2-yl-4H-[1,2,4]triazole] | 1170 nM | 80% |  | 
COc1ccccc1-n1c(SCc2csc(-c3ccc([N+](=O)[O-])cc3)n2)nnc1-c1cccs1 [Example 34, 4-(2-Methoxy-phenyl)-3-[2-(4-nitro-phenyl)-thiazol-4-ylmethylsulfanyl]-5-thiophen-2-yl-4H-[1,2,4]triazole] | > 10000 nM | 120% |  | 
COc1ccccc1-n1c(SCc2csc(-c3ccc(Cl)cc3)n2)nnc1-c1cccs1 [Example 35, 3-[2-(4-Chloro-phenyl)-thiazol-4-ylmethylsulfanyl]-4-(2-methoxy-phenyl)-5-thiophen-2-yl-4H-[1,2,4]triazole] | > 10000 nM | 90% |  | 
COc1ccccc1-n1c(SCc2csc(-c3ccc(C)cc3)n2)nnc1-c1cccs1 [Example 36, 4-(2-Methoxy-phenyl)-3-thiophen-2-yl-5-(2-p-tolyl-thiazol-4-ylmethylsulfanyl)-4H-[1,2,4]triazole] | > 10000 nM | 83% |  | 
COc1ccc(-c2nc(CSc3nnc(-c4cccs4)n3-c3ccccc3OC)co2)cc1 [Example 37, 4-(2-Methoxy-phenyl)-3-[2-(4-methoxy-phenyl)-oxazol-4-ylmethylsulfanyl]-5-thiophen-2-yl-4H-[1,2,4]triazole] | 3090 nM | 138% |  | 
COc1ccccc1-n1c(SCc2coc(-c3ccc(C(F)(F)F)cc3)n2)nnc1-c1cccs1 [Example 38, 4-(2-Methoxy-phenyl)-3-thiophen-2-yl-5-[2-(4-trifluoromethyl-phenyl)-oxazol-4-ylmethylsulfanyl]-4H-[1,2,4]triazole] | > 10000 nM | 18% |  | 
COc1ccccc1-n1c(SCc2coc(-c3ccc(F)cc3)n2)nnc1-c1cccs1 [Example 39, 3-[2-(4-Fluoro-phenyl)-oxazol-4-ylmethylsulfanyl]-4-(2-methoxy-phenyl)-5-thiophen-2-yl-4H-[1,2,4]triazole] | 105 nM | 93% |  | 
COc1ccccc1-n1c(SCc2coc(-c3ccc(Cl)cc3)n2)nnc1-c1cccs1 [Example 40, 3-[2-(4-Chloro-phenyl)-oxazol-4-ylmethylsulfanyl]-4-(2-methoxy-phenyl)-5-thiophen-2-yl-4H-[1,2,4]triazole] | 3340 nM | 58% |  | 
COc1ccccc1-n1c(SCc2coc(-c3ccc(C)cc3)n2)nnc1-c1cccs1 [Example 41, 4-(2-Methoxy-phenyl)-3-thiophen-2-yl-5-(2-p-tolyl-oxazol-4-ylmethylsulfanyl)-4H-[1,2,4]triazole] | 2490 nM | 58% |  | 
COc1ccccc1-n1c(SCc2coc(-c3ccc(Br)cc3)n2)nnc1-c1cccs1 [Example 42, 3-[2-(4-Bromo-phenyl)-oxazol-4-ylmethylsulfanyl]-4-(2-methoxy-phenyl)-5-thiophen-2-yl-4H-[1,2,4]triazole] | > 10000 nM | 33% |  | 
COc1ccccc1-n1c(SCc2coc(-c3ccc(OC(F)(F)F)cc3)n2)nnc1-c1cccs1 [Example 43, 4-(2-Methoxy-phenyl)-3-thiophen-2-yl-5-[2-(4-trifluoromethoxy-phenyl)-oxazol-4-ylmethylsulfanyl]-4H-[1,2,4]triazole] | 3890 nM | 102% |  | 
COc1ccccc1-n1c(SCc2cc(=O)n3c(C)cccc3n2)nnc1-c1cccs1 [Example 44, 2-[4-(2-Methoxy-phenyl)-5-thiophen-2-yl-4H-[1,2,4]triazol-3-ylsulfanylmethyl]-6-methyl-pyrido[1,2-a]pyrimidin-4-one] |  |  | 119% | 9.8 nM
COc1ccc2nc(CSc3nnc(-c4cccs4)n3-c3ccccc3OC)cc(=O)n2c1 [Example 45, 7-Methoxy-2-[4-(2-methoxy-phenyl)-5-thiophen-2-yl-4H-[1,2,4]triazol-3-ylsulfanylmethyl]-pyrido[1,2-a]pyrimidin-4-one] | 70.5 nM | 130% |  | 
COc1ccccc1-n1c(SCc2cc(=O)n3cc(Br)ccc3n2)nnc1-c1cccs1 [Example 46, 7-Bromo-2-[4-(2-methoxy-phenyl)-5-thiophen-2-yl-4H-[1,2,4]triazol-3-ylsulfanylmethyl]-pyrido[1,2-a]pyrimidin-4-one] | 7.8 nM | 117% |  | 
COc1ccccc1-n1c(SCc2cc(=O)n3cc(C#N)ccc3n2)nnc1-c1cccs1 [Example 47, 2-[4-(2-Methoxy-phenyl)-5-thiophen-2-yl-4H-[1,2,4]triazol-3-ylsulfanylmethyl]-4-oxo-4H-pyrido[1,2-a]pyrimidine-7-carbonitrile] | 25.2 nM | 54% |  | 
COc1ccccc1-n1c(SCc2cc(=O)n3cc(C)ccc3n2)nnc1-c1cccs1 [Example 48, 2-[4-(2-Methoxy-phenyl)-5-thiophen-2-yl-4H-[1,2,4]triazol-3-ylsulfanylmethyl]-7-methyl-pyrido[1,2-a]pyrimidin-4-one] | 28 nM | 103% |  | 
COc1ccccc1-n1c(SCc2cc(=O)n3cc(F)ccc3n2)nnc1-c1cccs1 [Example 49, 7-Fluoro-2-[4-(2-methoxy-phenyl)-5-thiophen-2-yl-4H-[1,2,4]triazol-3-ylsulfanylmethyl]-pyrido[1,2-a]pyrimidin-4-one] | 23.4 nM | 107% |  | 
COc1ccccc1-n1c(SCc2cc(=O)n3cc(Cl)ccc3n2)nnc1-c1cccs1 [Example 50, 7-Chloro-2-[4-(2-methoxy-phenyl)-5-thiophen-2-yl-4H-[1,2,4]triazol-3-ylsulfanylmethyl]-pyrido[1,2-a]pyrimidin-4-one] | 6.74 nM | 110% |  | 
COc1ccccc1-n1c(SCc2cc(=O)n3ccc(C)cc3n2)nnc1-c1cccs1 [Example 51, 2-[4-(2-Methoxy-phenyl)-5-thiophen-2-yl-4H-[1,2,4]triazol-3-ylsulfanylmethyl]-8-methyl-pyrido[1,2-a]pyrimidin-4-one] | 451 nM | 125% |  | 
